Source: patent US7071207B2, “Preparation and use of 1,5,6,7-tetrahydropyrrolo[3,2-c]pyridine derivatives for treatment of obesity” (Bayer Pharmaceuticals Corporation, priority 2001, dated 2006)
Counter-ions that a name gives are not always drawn.

Tests used:
[1] = Measurement of brain exposure; format: in vivo; conditions: male, obese Zucker fa/fa, rat, brain homogenate, oral; 10 mg/kg p.o.; brains collected at 2 hours post-dosing; read-out: brain homogenate exposure level
Method: Measurement of Brain Exposure
Male obese Zucker fa/fa rats are administered compounds, typically at 10 mg/kg p.o., and then brains are collected at 2 hours post-dosing for determination of brain concentration. Brains are weighed and homogenized with 4 mL 10 mM ammonium acetate buffer (pH 3), and the brain tissue homogenate samples are extracted via protein precipitation with acetonitrile. Samples are vortexed, centrifuged, and analyzed by liquid chromatography utilizing mass spectrometer selective detection (LC/MS/MS) using the heated nebulizer interface. Samples are quantitated using weighted (1/x^2) linear internal standard calibration curve.

[2] = system: obese Zucker fa/fa rats; test: Chronic feeding assay (body weight, food and water consumption); format: in vivo, rat; conditions: once per day at 10 mg/kg p.o.; day 6 of treatment
Source text: Evaluation of Compound's Efficacy on the Reduction of Body Weight and Food and Water Consumption in Obese Zucker fa/fa Rats
The purpose of this protocol is to determine the effect of chronic administration of an unknown compound on body weight and food and water consumption in obese Zucker fa/fa rats. Obese Zucker fa/fa rats are frequently used in the determination of compound efficacy in the reduction of body weight. This animal model has been successfully used in the identification and characterization of the efficacy profile of compounds that are or have been used in the management of body weight in obese humans (see, e.g., Al-Barazanji et al., Obes Res. 8:317–323, 2000; Assimacopoulos-Jeannet et al., Am. J. Physiol. 260(2 Pt 2):R278–283, 1991; Dryden et al., Horm. Metab. Res. 31:363–366, 1999; Edwards and Stevens, Pharmacol. Biochem. Behav. 47:865–872, 1994; Grinker et al., Pharmacol. Biochem. Behav. 12:265–275, 1980).
A typical study includes 60–80 male Zucker fa/fa (n=10/treatment group) with an average body weight of approximately 550 g. […]
Animals are orally gavaged (2 mL/kg) daily before the dark phase of the LD/cycle for a pre-determined number of days (typically 6–14 days) with their assigned dose/compound. At this time, body weight, food and water consumption are measured. On the final day, animals are euthanized by CO2 inhalation, and the body weight is measured.

concentration at 2 h [1] [nM] | SMILES | increase in body weight from baseline [2]
> 500 | O[C@@H]1CCCC[C@H]1N1CCc2c(cc(-c3ccc(Cl)cc3)n2-c2ccccc2Cl)C1 (relative stereo) [entry 18, trans-2-[1-(2-chlorophenyl)-2-(4-chlorophenyl)-1,4,6,7-tetrahydro-5H-pyrrolo[3,2-c]pyridin-5-yl]cyclohexanol hydrochloride] | –
– | COc1ccc(-c2c(C)c3c(n2-c2ccccc2Cl)CCN(N2CCCCC2)C3=O)cc1.Cl [entry 189, 1-(2-chlorophenyl)-2-(4-methoxyphenyl)-3-methyl-5-(1-piperidinyl)-1,5,6,7-tetrahydro-4H-pyrrolo[3,2-c]pyridin-4-one hydrochloride] | no increase in body weight from baseline
